Laboratory results published in patent US7427598B2, “Post-natal administration of activity-dependent neurotrophic factor-derived polypeptides for enhancing learning and memory” (The United States of Americas as represented by the …, priority 2001, dated 2008).
Each block holds one compound with its values, some of them ahead of it. Square brackets hold non-standard residues; d marks the D form. Ends that are not written are not given here.

Legend:
[1] = Biodistribution and intactness of [3H]-NAP following intranasal administration
AF64A-treated rats [2] = assay: Water maze (two daily tests, hidden platform) in AF64A cholinotoxicity rats, intranasal peptide; format: in vivo, rat; conditions: 1 μg peptide intranasal daily, vs AF64A-vehicle
Protocol: Rats were subjected to two daily tests in a water maze, including a hidden platform (Morris, R., J. Neurosci. Methods 11:47-60 (1984); Gordon et al., Neurosci. Lett. 199:1-4 (1995); Gozes et al., J Neurobiol. 33:329-342. (1997a)). Every day for the first test, both the platform and the animal were situated in a new location with regards to the pool (with the pool being immobile).
The experiment was performed as follows: the animal was positioned on the platform for 0.5 min., then placed in the water. The time required to reach the platform (indicative of learning and intact reference memory) was measured (first test). […] The time required to reach the platform in the second trial was recorded, indicative of short-term (working) memory. […]
After a week of peptide treatment, the animals were subjected to two daily tests in the water maze (as above). […] To avoid bias related to changes in motor activity in the various treatment groups, a probe trial test that assessed spatial memory was also utilized as follows. After four days of training and testing, the platform was removed and on day 5 the animals were subjected to swimming in the pool (120 sec) without the platform; in these experiments, the time spent in the quadrant of the pool where the platform used to be was recorded. […]

AF64A-treated rats [3] = assay: Probe trial (platform removed, time in platform quadrant) in rats; format: in vivo, rat; conditions: AF64A-treated rats given peptide intranasally vs AF64A-vehicle, 120 sec swim, p<0.001
Excerpt: After a week of peptide treatment, the animals were subjected to two daily tests in the water maze (as above). During the test-period, animals were also given an intranasal administration of peptide or vehicle (carrier) an hour before the daily tests. To avoid bias related to changes in motor activity in the various treatment groups, a probe trial test that assessed spatial memory was also utilized as follows. After four days of training and testing, the platform was removed and on day 5 the animals were subjected to swimming in the pool (120 sec) without the platform; in these experiments, the time spent in the quadrant of the pool where the platform used to be was recorded. Measurements were performed using the HVS video tracking system (HVS Image Ltd. Hampton, UK).

[4] = tested on: apolipoprotein E-deficient mice; conditions: injection to newborn mice, short-term memory in three-week-old pups; cited from earlier work
[5] = storage at temperatures <4° C.; cited from earlier work
C57-B16J mice = assay: Morris water maze in male offspring after prenatal treatment of pregnant mice; format: in vivo, mouse; conditions: vs vehicle; for Latency to find the hidden platform, prenatal oral single peptide 40 μg: gavage on pregnancy day 8, 40 μg
Protocol: C57-B16J female mice (Jackson Labs) were kept under a 12 h light, 12 h dark regimen with food and water available at all times. The mice received humane animal care in compliance with the “Guideline for Care and Use of Experimental Animals.” Six week old females (21-24 grams) were mated with C57-B16J males for 4 h. The presence of a vaginal plug was considered day 0 pregnancy.
Animals were injected intraperitoneally on pregnancy day 8, or treated on pregnancy day 8 after 1 hour fast with gavage dose of ADNF polypeptides. NAP was diluted in 50 μl DMSO and diluted in filtered Dulbecco 's phosphate buffered saline (DPBS). SAL was dissolved and diluted in filtered DPBS. Control animals were treated with a vehicle (i.e., DPBS). All treatments were coded.
Delivery occurred on day 20, weaning on day 20 of life. Male offspring were eartagged with all identifying markers of coded treatments removed.
Only male mice were used for the water maze trials. Testing of mice began at 35-50 days, typically on day 38, twice daily (two trials) for 7 days.
Morris water maze test used is adapted from “repeated acquisition of a spatial navigation task in mice: Effects of spacing of trials and of unilateral middle cerebral artery occlusion” Klapdor & Van der Staay, Physiology & Behav. 63(5):903-909 (1998). A trial consists of attempting to find the hidden platform from 4 set points. Specifically, testing of mice began in the mornings, typically between 9 and 9:30. Consistent timing is important to any behavioral study. Testing of mice was performed in a random order to prevent chronological bias by the researcher. Maze was set up the day before, to allow water time to adjust to room temperature. 100-150 ml of non-toxic white tempura is added and mixed. […]
On days 2-7, mice are only given 15 seconds on the platform before the initial trial. […] The daily average escape latency is calculated and plotted along the 7 day period for test administration. […]

neuroblastoma cell = conditions: buthionine sulfoximine induced; cited from earlier work
[6] = Preliminary toxicology studies
[7] = rat, in vivo, inhaled or intranasal
[8] = rat

Time of highest total radioactivity in the brain (cortex) ([1]; following intranasal administration): 60 min | Radioactivity found (calculated as NAP per g tissue) ([1]; intranasal 22.75 pmole per rat, compared with 91 fmoles/g assumed for homogeneous distribution): 45 fmoles/g tissue | Organ distribution of total radioactivity ([1]; intranasal [3H]-NAP, thirty minutes after administration): highest levels in the intestine
Compound: NAP, propyl 3-3,4-[^3H] [[^3H]-NAP]

Compound: SALLRSIPA [ADNF-9]
Latency to reach the hidden platform, first daily test (reference memory) (AF64A-treated rats [2]; NAP difference on fourth day of testing (p<0.041)): apparent insignificant improvement | Latency to reach the hidden platform, second daily test (short-term memory) (AF64A-treated rats [2]; p<0.001): significant improvements and reduced latencies | Time spent in the quadrant of the pool where the platform was previously positioned (probe trial, day 5) (AF64A-treated rats [3]): significantly increased | Amelioration/prevention of memory deficits in apolipoprotein E-deficient mice [4]: less effective than NAP | Biological activity of PBS solutions upon storage [5]: lost biological activity

Compound: D-SAL: SAL (SALLRSIPA) made of D-amino acids, for oral administration ([dS][dA][dL][dL][dR][dS][dI][dP][dA])
Latency to find the hidden platform, prenatal oral single peptide 40 μg (C57-B16J mice): trend of faster latencies | Latency to find the hidden platform, prenatal oral double dose 80 μg (C57-B16J mice; gavage on pregnancy day 8, 80 μg): perform similarly to the control animals

Compound: CCCCS(=N)(=O)CCC(N)C(=O)O (stereo not drawn) [buthionine sulfoximine, Buthionine sulfoximine]
Decrease in neuroblastoma cell viability (neuroblastoma cell): 70-90%

half-life [7]: ~15 min | Fraction of material intact in the brain, 30 min ([8]; in vivo): at least 12% | Total material eluted from the HPLC column, cortex, 30 min ([8]; in vivo): 807.8 fmole/g tissue | Total material eluted from the HPLC column, cortex, 60 min ([8]; in vivo): 1198.9 fmoles/g tissue
Compound: CC[C@H](C)[C@H](NC(=O)[C@H](CO)NC(=O)[C@@H](NC(=O)[C@@H]1CCCN1C(=O)[C@H](C)NC(=O)[C@@H](N)CC(N)=O)C(C)C)C(=O)N1CCC[C@H]1C(=O)N[C@@H](CCC(N)=O)C(=O)O [NAP, Asn-Ala-Pro-Val-Ser-Ile-Pro-Gln]
Toxic effects [6]: no toxic effects | In vivo metabolism by HPLC analysis [8]: metabolized in vivo to multiple fragments

Compound: D-NAP: NAP (NAPVSIPQ) made of D-amino acids, for oral administration
Latency to find the hidden platform, prenatal oral single peptide 40 μg (C57-B16J mice): trend of faster latencies
